Assay results as given in ChEMBL document CHEMBL2074446, “Contribution of P-glycoprotein to efflux of ramosetron, a 5-HT3 receptor antagonist, across the blood-brain barrier” (J Pharm Pharmacol, 2002).

Key:
Type in all cases: functional, cell-based
[1] = target: ATP-dependent translocase ABCB1 (Mus musculus, UniProt P06795); assay: TP_TRANSPORTER: uptake, not inhibited by Verapamil in MBEC4 cell
[2] = target: ATP-dependent translocase ABCB1 (Homo sapiens, UniProt P08183); assay: TP_TRANSPORTER: uptake in LLC-PK1 cell and LLC-GA5-COL300 cells; conditions: pig
Sequence of ATP-dependent translocase ABCB1 (Homo sapiens, UniProt P08183) (P08183 whole entry): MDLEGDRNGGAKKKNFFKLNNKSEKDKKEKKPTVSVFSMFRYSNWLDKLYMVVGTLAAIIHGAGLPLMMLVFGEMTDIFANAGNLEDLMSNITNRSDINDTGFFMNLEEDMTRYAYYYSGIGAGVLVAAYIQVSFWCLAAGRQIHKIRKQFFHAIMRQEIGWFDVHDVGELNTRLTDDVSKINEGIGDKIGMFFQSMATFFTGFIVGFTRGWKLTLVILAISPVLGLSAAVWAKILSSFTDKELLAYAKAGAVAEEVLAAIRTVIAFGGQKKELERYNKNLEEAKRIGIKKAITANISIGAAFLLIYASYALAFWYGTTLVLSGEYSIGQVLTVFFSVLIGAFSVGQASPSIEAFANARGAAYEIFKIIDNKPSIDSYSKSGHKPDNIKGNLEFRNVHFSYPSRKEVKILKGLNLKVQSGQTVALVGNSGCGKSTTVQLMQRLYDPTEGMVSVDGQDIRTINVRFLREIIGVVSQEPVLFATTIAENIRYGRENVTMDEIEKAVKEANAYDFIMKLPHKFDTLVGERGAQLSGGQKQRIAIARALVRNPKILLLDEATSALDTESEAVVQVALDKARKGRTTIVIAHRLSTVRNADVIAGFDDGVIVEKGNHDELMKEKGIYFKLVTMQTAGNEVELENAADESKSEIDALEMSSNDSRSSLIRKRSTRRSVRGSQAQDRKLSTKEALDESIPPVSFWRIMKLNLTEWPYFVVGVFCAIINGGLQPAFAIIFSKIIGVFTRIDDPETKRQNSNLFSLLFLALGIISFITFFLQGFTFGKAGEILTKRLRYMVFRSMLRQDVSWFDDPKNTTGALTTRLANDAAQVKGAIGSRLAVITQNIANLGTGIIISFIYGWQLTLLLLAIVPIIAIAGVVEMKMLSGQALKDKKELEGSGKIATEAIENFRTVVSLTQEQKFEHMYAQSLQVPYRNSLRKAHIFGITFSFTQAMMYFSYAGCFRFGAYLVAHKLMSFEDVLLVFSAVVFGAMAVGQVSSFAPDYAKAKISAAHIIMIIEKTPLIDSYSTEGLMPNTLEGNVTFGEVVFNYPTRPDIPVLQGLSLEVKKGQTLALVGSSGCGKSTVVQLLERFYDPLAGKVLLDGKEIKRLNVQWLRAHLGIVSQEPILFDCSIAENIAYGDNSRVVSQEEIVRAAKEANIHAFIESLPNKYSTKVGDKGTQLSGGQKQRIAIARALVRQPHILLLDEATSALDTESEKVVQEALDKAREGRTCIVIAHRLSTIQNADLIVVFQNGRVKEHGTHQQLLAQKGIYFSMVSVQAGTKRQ

[3] = target: ATP-dependent translocase ABCB1 (Mus musculus, UniProt P21447); assay: TP_TRANSPORTER: uptake in L cell and LV500 cell
Sequence of ATP-dependent translocase ABCB1 (Mus musculus, UniProt P21447) (P21447 whole entry): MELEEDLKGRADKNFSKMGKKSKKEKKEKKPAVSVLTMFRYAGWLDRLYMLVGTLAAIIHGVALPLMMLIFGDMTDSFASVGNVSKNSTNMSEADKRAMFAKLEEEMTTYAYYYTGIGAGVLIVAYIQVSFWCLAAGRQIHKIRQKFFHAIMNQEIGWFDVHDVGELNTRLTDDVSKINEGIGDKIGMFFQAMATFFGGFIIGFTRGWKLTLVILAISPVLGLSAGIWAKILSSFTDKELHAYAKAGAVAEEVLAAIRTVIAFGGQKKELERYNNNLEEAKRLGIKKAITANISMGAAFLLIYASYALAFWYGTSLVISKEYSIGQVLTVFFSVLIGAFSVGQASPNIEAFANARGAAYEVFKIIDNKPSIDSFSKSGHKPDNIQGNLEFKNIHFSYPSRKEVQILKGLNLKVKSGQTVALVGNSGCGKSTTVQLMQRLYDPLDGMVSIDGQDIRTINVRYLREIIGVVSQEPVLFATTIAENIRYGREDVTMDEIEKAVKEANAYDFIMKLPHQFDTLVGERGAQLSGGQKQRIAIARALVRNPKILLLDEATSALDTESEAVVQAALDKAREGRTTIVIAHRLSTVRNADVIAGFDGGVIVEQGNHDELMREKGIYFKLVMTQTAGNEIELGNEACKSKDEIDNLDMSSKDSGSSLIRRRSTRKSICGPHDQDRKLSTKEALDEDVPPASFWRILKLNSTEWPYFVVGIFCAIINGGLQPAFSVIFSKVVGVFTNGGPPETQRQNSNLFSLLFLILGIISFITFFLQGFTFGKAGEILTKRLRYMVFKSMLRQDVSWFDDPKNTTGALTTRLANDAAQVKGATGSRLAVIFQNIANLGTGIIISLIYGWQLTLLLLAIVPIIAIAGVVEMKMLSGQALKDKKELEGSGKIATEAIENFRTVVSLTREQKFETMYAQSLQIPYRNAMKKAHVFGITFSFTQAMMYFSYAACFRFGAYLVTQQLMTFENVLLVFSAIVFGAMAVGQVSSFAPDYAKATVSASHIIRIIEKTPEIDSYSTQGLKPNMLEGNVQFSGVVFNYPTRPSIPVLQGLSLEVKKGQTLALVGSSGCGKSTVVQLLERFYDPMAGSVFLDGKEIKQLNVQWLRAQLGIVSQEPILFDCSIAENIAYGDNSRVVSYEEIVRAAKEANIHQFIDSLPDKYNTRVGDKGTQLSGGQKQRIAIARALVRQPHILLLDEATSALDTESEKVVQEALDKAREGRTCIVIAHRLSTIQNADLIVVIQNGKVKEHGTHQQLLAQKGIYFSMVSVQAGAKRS

Sequence of ATP-dependent translocase ABCB1 (Mus musculus, UniProt P06795) (P06795 whole entry): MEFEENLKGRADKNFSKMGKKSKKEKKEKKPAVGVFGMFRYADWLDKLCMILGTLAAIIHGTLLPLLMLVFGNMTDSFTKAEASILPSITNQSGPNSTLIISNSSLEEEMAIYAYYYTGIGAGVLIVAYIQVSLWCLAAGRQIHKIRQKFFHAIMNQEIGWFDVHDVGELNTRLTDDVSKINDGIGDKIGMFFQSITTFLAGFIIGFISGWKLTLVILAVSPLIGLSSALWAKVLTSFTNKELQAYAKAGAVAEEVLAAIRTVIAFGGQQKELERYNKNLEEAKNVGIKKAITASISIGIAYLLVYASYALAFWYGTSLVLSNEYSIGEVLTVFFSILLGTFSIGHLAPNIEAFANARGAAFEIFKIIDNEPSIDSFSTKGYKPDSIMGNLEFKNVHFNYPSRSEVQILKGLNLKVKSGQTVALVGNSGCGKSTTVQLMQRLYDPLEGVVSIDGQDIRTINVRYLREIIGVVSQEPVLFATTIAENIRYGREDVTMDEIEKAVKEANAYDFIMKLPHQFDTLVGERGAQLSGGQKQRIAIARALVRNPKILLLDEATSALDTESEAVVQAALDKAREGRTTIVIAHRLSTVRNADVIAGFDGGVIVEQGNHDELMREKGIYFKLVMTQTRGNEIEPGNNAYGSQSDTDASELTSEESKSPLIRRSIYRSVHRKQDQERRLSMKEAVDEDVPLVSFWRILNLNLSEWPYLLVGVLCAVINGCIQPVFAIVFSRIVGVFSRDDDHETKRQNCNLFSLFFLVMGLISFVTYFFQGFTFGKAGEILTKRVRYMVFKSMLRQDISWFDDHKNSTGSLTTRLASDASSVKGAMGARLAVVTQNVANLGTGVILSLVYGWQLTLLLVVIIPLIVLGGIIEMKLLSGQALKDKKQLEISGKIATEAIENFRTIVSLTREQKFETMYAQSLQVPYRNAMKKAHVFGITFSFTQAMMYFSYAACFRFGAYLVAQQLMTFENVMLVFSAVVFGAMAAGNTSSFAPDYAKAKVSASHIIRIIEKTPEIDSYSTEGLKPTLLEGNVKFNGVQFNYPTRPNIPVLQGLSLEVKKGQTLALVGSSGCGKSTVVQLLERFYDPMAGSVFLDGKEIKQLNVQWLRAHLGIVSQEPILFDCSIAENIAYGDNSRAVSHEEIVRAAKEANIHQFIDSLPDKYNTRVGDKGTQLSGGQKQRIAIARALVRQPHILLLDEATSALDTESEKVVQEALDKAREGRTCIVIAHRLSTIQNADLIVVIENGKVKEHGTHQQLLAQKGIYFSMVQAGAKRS

Activity [1]: is not a substrate [-] | Activity [2]: substrate [+] | Activity [3]: substrate [+]
Structure (SMILES): Cn1cc(C(=O)[C@@H]2CCc3nc[nH]c3C2)c2ccccc21 [RAMOSETRON]
